Common to all, as to assay: Kinase panel profiling at 1 µmol/L (mobility shift assay, Carna)
Type in all cases: biochemical
Holding throughout (conditions): 1 µmol/L of BTK inhibitor

One test deals with T1, AXL (Homo sapiens, UniProt P30530).
T1 construct: purchased Carna Biosciences
T1 sequence (P30530 26-894): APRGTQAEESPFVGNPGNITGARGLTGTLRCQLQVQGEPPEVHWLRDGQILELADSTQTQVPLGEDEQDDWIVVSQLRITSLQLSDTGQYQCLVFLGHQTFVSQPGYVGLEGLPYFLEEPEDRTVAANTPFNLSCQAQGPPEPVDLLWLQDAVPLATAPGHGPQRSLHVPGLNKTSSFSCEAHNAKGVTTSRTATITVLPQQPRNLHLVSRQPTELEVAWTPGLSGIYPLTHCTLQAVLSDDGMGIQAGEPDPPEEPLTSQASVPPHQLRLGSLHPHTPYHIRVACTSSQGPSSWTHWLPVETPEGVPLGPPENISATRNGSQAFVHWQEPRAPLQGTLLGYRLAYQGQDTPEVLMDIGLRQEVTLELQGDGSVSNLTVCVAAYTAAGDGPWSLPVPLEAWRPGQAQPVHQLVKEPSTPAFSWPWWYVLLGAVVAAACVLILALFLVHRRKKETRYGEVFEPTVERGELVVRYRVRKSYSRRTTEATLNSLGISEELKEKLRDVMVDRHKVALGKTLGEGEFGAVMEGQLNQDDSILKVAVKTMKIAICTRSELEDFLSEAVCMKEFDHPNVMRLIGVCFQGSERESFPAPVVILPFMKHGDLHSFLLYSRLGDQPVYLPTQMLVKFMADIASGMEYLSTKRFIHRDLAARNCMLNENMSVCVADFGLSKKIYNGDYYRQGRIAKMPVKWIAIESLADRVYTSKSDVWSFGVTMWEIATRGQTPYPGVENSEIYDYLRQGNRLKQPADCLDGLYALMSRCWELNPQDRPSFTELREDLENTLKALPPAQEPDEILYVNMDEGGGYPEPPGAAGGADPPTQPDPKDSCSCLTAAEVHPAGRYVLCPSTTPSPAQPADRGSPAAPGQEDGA

The next test concerns the target T2, MER (Homo sapiens, UniProt Q12866).
T2 construct: purchased Carna Biosciences
T2 sequence (Q12866 21-999): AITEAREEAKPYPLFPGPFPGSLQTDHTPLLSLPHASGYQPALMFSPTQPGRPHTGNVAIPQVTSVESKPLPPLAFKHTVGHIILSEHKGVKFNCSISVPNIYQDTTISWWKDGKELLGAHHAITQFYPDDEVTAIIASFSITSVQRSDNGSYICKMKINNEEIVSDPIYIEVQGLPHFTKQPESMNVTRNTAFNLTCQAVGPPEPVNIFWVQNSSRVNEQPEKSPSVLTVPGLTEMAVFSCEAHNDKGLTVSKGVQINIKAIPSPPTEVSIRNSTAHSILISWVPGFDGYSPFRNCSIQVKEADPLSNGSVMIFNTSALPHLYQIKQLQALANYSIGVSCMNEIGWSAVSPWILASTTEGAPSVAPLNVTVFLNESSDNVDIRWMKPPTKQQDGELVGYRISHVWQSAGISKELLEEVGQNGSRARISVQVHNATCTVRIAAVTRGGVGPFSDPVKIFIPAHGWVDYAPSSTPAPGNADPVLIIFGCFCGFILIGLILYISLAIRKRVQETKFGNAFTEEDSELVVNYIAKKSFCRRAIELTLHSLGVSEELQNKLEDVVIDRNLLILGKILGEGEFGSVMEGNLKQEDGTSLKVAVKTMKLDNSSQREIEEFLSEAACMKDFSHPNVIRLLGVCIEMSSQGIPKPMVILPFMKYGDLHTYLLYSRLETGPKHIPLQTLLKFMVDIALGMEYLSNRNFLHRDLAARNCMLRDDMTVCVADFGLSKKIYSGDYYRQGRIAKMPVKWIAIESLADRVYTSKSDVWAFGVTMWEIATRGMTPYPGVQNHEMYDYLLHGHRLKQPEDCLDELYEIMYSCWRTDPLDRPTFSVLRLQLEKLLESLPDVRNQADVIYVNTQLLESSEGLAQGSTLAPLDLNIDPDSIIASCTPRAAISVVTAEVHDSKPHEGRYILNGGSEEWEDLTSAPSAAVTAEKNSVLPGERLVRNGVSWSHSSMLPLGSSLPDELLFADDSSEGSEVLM

The next test addresses T3, AKT2 (Homo sapiens, UniProt P31751).
T3 construct: purchased Carna Biosciences

A further test deals with T4, CaMK2δ (Homo sapiens, UniProt Q13557).
T4 construct: purchased Carna Biosciences

The target of a further test is T5, CK1γ2 (Homo sapiens, UniProt P78368).
T5 construct: purchased Carna Biosciences
T5 sequence (P78368 whole entry): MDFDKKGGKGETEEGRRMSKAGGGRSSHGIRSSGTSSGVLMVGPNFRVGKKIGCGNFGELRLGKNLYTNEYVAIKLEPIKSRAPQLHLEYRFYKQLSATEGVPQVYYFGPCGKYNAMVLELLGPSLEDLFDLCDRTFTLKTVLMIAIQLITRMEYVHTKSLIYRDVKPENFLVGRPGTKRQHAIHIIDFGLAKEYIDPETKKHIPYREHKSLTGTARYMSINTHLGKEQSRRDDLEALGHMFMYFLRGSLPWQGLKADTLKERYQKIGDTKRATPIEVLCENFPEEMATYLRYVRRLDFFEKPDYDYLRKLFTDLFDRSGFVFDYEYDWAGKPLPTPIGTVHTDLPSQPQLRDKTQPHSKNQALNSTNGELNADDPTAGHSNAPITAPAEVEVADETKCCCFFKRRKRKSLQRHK

The target in a further test is T6, DYRK1B (Homo sapiens, UniProt Q9Y463).
T6 construct: purchased Carna Biosciences
T6 sequence (Q9Y463 whole entry): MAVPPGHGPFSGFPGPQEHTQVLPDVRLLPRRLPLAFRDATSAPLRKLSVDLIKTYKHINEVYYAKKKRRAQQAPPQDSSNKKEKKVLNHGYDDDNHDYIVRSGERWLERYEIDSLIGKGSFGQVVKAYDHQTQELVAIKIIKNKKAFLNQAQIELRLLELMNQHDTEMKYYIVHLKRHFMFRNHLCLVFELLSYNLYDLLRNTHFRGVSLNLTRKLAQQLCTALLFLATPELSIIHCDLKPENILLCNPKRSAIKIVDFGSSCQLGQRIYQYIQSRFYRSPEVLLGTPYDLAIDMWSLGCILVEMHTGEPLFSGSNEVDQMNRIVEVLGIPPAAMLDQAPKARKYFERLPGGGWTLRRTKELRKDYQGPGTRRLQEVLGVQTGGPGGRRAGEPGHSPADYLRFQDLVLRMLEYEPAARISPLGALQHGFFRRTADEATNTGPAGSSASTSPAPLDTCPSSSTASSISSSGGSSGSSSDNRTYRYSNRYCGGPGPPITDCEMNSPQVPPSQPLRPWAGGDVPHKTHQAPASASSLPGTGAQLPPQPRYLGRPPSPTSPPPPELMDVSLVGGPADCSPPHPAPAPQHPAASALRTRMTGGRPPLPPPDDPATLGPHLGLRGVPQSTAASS

For the next test, the target named is T7, GSK3β (Homo sapiens, UniProt P49841).
T7 construct: purchased Carna Biosciences
T7 sequence (P49841 whole entry): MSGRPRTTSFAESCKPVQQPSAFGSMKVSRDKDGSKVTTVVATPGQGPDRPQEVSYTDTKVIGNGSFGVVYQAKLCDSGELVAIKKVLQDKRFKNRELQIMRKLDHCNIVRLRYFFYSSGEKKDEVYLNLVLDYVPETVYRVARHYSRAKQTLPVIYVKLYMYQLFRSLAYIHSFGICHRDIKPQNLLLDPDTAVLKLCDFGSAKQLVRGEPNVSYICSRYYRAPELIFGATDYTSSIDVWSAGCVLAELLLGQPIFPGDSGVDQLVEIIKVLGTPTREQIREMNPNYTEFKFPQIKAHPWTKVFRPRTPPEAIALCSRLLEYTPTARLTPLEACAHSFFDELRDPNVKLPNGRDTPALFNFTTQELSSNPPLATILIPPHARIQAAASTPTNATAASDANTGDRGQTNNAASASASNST

For another test, the target named is T8, HIPK3 (Homo sapiens, UniProt Q9H422).
T8 construct: purchased Carna Biosciences

The next test addresses T9, NDR2 (Homo sapiens, UniProt Q9Y2H1).
T9 construct: purchased Carna Biosciences

The next test deals with T10, p38β (Homo sapiens, UniProt Q15759).
T10 construct: purchased Carna Biosciences

In a further test the target is T11, PKACβ (Homo sapiens, UniProt P22694).
T11 construct: purchased Carna Biosciences

The target in the next test is T12, WNK1 (Homo sapiens, UniProt Q9H4A3).
T12 construct: purchased Carna Biosciences
T12 sequence (Q9H4A3 whole entry): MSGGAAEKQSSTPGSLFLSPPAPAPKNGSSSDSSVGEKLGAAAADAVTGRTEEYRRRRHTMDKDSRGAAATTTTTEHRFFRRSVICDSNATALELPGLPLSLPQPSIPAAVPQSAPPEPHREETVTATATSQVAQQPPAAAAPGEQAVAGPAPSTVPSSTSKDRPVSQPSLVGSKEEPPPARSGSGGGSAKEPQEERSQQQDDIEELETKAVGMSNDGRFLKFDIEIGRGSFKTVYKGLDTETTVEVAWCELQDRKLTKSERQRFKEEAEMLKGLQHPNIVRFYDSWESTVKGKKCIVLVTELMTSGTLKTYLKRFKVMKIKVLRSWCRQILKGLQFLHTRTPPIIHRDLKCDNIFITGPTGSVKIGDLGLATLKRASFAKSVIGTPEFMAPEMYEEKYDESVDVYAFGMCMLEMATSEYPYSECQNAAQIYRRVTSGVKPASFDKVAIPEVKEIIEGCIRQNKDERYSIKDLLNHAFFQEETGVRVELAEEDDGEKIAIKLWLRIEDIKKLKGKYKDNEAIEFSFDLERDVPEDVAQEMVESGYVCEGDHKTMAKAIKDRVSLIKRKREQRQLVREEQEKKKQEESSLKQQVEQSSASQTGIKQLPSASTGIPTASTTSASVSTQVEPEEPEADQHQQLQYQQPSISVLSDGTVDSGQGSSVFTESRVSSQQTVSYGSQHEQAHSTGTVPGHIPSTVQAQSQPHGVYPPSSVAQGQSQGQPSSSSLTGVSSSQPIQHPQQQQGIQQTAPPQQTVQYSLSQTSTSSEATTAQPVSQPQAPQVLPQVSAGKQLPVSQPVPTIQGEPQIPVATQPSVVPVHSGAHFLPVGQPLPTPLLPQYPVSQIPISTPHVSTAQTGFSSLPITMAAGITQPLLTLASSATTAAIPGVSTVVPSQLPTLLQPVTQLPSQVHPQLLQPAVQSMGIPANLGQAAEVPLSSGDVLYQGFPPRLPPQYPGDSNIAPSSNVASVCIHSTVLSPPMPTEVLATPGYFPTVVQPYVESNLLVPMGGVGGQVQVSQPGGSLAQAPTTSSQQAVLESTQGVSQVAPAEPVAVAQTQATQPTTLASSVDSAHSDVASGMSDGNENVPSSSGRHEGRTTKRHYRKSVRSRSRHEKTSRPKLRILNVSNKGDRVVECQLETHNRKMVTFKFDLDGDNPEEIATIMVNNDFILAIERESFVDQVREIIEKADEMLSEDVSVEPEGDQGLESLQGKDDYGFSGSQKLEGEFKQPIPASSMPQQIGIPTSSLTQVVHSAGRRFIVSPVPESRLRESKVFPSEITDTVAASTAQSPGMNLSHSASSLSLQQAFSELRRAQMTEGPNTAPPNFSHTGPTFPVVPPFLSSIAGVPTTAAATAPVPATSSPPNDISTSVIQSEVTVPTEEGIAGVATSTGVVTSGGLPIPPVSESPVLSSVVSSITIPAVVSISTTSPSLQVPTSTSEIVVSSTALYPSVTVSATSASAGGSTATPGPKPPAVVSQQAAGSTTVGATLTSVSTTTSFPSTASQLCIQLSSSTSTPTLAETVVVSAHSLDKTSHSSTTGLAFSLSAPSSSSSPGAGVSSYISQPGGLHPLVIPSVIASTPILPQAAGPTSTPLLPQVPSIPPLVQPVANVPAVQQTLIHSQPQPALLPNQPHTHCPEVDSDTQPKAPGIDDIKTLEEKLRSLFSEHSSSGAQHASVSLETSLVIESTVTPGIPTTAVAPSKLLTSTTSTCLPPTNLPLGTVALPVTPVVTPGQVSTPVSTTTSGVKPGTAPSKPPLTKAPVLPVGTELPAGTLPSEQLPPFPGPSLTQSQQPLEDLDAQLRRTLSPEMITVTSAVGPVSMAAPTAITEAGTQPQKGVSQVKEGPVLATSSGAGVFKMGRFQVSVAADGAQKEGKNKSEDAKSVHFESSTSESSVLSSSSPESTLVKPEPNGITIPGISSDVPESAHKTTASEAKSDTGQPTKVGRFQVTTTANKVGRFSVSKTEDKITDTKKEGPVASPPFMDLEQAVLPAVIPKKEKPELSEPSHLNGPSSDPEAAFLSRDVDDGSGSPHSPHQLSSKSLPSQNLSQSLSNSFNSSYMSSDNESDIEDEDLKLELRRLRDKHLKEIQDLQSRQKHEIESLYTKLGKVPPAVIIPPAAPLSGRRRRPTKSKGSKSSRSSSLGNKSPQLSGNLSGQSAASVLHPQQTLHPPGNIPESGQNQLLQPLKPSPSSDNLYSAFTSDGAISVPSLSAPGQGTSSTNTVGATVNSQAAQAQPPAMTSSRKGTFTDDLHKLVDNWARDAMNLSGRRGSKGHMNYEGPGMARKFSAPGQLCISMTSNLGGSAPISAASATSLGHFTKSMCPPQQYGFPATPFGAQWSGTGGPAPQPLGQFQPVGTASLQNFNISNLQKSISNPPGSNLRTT

Each structure is given as a SMILES string.

T3 sequence (P31751 whole entry): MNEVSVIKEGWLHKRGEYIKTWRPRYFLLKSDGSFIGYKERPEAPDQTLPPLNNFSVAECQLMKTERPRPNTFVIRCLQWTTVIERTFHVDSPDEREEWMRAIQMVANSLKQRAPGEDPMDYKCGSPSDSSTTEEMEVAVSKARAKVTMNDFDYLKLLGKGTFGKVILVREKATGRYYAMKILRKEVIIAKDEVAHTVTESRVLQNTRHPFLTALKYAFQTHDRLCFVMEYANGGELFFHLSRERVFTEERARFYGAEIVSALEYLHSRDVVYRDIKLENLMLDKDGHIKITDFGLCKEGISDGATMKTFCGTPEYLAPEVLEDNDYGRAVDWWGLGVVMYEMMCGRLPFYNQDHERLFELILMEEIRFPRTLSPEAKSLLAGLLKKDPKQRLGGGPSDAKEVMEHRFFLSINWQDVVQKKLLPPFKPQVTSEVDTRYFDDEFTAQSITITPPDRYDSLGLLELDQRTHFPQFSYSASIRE
T9 sequence (Q9Y2H1 whole entry): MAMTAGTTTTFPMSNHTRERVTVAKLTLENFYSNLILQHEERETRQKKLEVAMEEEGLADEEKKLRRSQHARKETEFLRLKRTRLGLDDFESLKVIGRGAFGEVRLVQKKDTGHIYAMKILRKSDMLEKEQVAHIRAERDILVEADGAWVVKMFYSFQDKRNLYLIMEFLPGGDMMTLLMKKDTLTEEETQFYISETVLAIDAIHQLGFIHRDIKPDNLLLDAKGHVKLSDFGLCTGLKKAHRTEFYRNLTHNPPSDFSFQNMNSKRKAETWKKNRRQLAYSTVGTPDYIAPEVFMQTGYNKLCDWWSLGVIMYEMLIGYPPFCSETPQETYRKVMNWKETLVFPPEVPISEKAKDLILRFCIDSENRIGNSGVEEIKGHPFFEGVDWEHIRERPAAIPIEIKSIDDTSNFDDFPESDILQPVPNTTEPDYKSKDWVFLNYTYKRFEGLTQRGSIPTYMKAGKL

As for `CC#CC(=O)N1CCC[C@H]1c1nc(-c2ccc(C(=O)Nc3ccccn3)cc2)c2c(N)nccn12` [acalabrutinib], the “Percentage inhibition of kinase enzyme activity” value (from here on “Percentage inhibition”) on AXL is given as -0.46%; on MER, -3.37%; on AKT2, -2.69%; at CaMK2δ it was -3.53%; at CK1γ2 it was -7.07%; at DYRK1B, -19.49%. Also, the “Percentage inhibition” value is on record as -2.39% on GSK3β; -12.04% at HIPK3; -6.41% at NDR2; -3.08% at p38β; -13.09% at PKACβ; 5.36% on WNK1.

As to `C=CC(=O)N1CCC[C@@H](n2nc(-c3ccc(Oc4ccccc4)cc3)c3c(N)ncnc32)C1` [ibrutinib], the “Percentage inhibition” value on AXL is reported as 8.97%; on AKT2 it was -3.12%; at CaMK2δ, -0.83%; on CK1γ2, 1.01%; at DYRK1B, 1.91%; at GSK3β it was -4.00%. Further, the “Percentage inhibition” value is 1.67% at HIPK3; 3.47% at NDR2; 9.06% on p38β; -9.04% on PKACβ; 2.30% at WNK1.

Turning to `O=C(c1ccc(Oc2ccccc2)cc1Cl)c1c[nH]c2ncnc(N[C@@H]3CC[C@@H](CO)OC3)c12` [nemtabrutinib], the “Percentage inhibition” value is 84.52% on AXL; 29.53% at MER; 4.40% at AKT2; 14.10% at CaMK2δ; -5.17% at CK1γ2; -3.59% on DYRK1B. In addition, the “Percentage inhibition” value on GSK3β was -7.92%; at HIPK3, 5.34%; on NDR2, -0.25%; at p38β, 12.08%; on PKACβ it was 12.59%; at WNK1, 8.78%.

As to `COc1ccc(F)cc1C(=O)NCc1ccc(-c2nn([C@@H](C)C(F)(F)F)c(N)c2C(N)=O)cc1` [pirtobrutinib], the “Percentage inhibition” value is -1.48% on AXL; -2.75% at MER; -4.63% on AKT2; -7.24% at CaMK2δ; 1.27% at CK1γ2; 12.04% at DYRK1B. The “Percentage inhibition” value at GSK3β is reported as -23.01%; at HIPK3, 3.06%; at NDR2, -4.16%; on p38β, 2.61%; on PKACβ, -8.02%; on WNK1, -5.02%.

On to `C=CC(=O)N1CCC([C@@H]2CCNc3c(C(N)=O)c(-c4ccc(Oc5ccccc5)cc4)nn32)CC1` [zanubrutinib], for which the “Percentage inhibition” value was -2.35% on MER and 0.50% at NDR2.
